One assay has as its system HEK-293T. The assay can be described thus: Cytotoxicity against human 293T cells after 72 hrs by MTT assay. Format: cell-based.
In assay [1] the test system is Mycobacterium tuberculosis. The assay can be described thus: Antituberculosis activity against Mycobacterium tuberculosis H37Rv assessed as inhibition of bacterial growth after 45 days. It counts as functional.

Values after ≈ are worked out from the molar mass of the structure shown. Counter-ions that a name gives are not always drawn.

The record followed here is ChEMBL document CHEMBL3297704, “Theophylline-7-acetic acid derivatives with amino acids as anti-tuberculosis agents” (Bioorg Med Chem Lett, 2014).

For the compound `COC(=O)[C@H](Cc1cc2ccccc2[nH]1)NC(=O)Cn1cnc2c1c(=O)n(C)c(=O)n2C`, the IC50 (in general, the concentration that gives 50% inhibition) with HEK-293T was above 400 µM. Besides, in assay [1], the MIC (usually the lowest concentration that inhibits growth of the organism) was found to be 0.46 µM (≈ 0.202 µg/mL).

`C[C@H](NC(=O)Cn1cnc2c1c(=O)n(C)c(=O)n2C)C(=O)O` showed an IC50 in the assay with HEK-293T above 400 µM. In addition, in assay [1], the MIC was 0.65 µM (≈ 0.201 µg/mL).

In turn, `Cn1c(=O)c2c(ncn2CC(=O)N[C@@H](Cc2cc3ccccc3[nH]2)C(=O)O)n(C)c1=O` yielded an IC50 in the assay with HEK-293T above 400 µM. Moreover, the MIC in assay [1] stood at 0.47 µM (≈ 0.199 µg/mL).

For `CC[C@@H](CO)NCCN[C@@H](CC)CO` [ETHAMBUTOL HYDROCHLORIDE], in assay [1], the MIC amounted to 7.22 µM.
